Assay results published in patent US8716347B2, “Tramadol for the treatment of functional gastrointestinal disorders” (Euro-Celtique S.A., priority 2000, dated 2014).
Counter-ions that a name gives are not always drawn.

Assays:
gut transit time = settings: in vivo; cited from earlier work
[1] = tested on: functional gastrointestinal disorder (diarrhoea with abdominal pain); assay: Treatment of patients with abdominal pain and diarrhoea with normal release tramadol (case reports); format: in vivo, human; settings: 50 mg normal release twice daily
[2] = tested on: patients started on tramadol pain therapy; settings: initially when started on tramadol pain therapy; cited from earlier work
[3] = Example 2: person with abdominal pain and diarrhoea

CN(C)CCCN1c2ccccc2CCc2ccccc21 [imipramine]
effect on gut transit time (gut transit time): increase gut transit time

COc1cccc(C2(O)CCCCC2CN(C)C)c1 (stereo not shown) [tramadol hydrochloride]
bowel movements after treatment ([1]; Example 1: person, long term chronic refractory diarrhoea): normal bowel movements | abdominal pain after treatment ([1]; Example 1: person, severe persistent abdominal pain): absence of pain

COc1cccc(C2(O)CCCCC2CN(C)C)c1 (stereo not shown) [tramadol, 2-[(Dimethylamino)methyl]-1-(3-methoxyphenyl)cyclohexanol]
proportion of patients suffering nausea and vomiting [2]: one third and a half | abdominal pain after treatment [1, 3]: relief of pain | bowel movements after treatment [1, 3]: normal bowel movements | side effect ([1]; Example 2: person): some drowsiness
